From patent publication US10335409B2 (priority 2012, dated 2019) come the findings set out here.

The test system of assay [1] is genotype 2a (JFH-1) stable HCV replicon in Huh-7-derived cells. The assay can be described thus: Stable subgenomic HCV replicon EC50, genotype 2a (Renilla luciferase). The following applies: Hepatitis C virus, stable replicon genotype 2a, 72 h, read-out: EC50 2A RLUC. The format is cell-based, hepatitis C virus. In short, it runs like this: (§1)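 Compounds, three-fold diluted, were applied to Huh-7-derived cells harbouring luciferase replicons (genotype 1a H77, 1b Con1, 2a JFH-1, 4a ED43, with strain-specific adaptive mutations). Seventy-two hours later, intracellular replication was gauged by Renilla luciferase activity and EC50 derived by regression.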
(In antiviral work, replicon cells carry a viral genome segment that copies itself.)

Assay [2] relates to genotype 1b (Con1) stable HCV replicon in Huh-7-derived cells. The assay can be described thus: Stable subgenomic HCV replicon EC50, genotype 1b (Renilla luciferase). The format is cell-based, hepatitis C virus. The settings on record: Hepatitis C virus, stable replicon genotype 1b, 72 h, read-out: EC50 1B RLUC. Summed up:
as §1

Assay [3] relates to genotype 4a (ED43) stable HCV replicon in Huh-7-derived cells. Nature of the assay: Stable subgenomic HCV replicon EC50, genotype 4a (Renilla luciferase). Type of assay: cell-based, hepatitis C virus. The following applies: Hepatitis C virus, 72 h, read-out: EC50 4A RLUC. In short, it runs like this:
as §1

For assay [4], the target named is HCV NS3 protease domain genotype 3a (Hepatitis C virus genotype 3a, UniProt Q81258). Nature of the assay: Ki determination, NS3 protease genotype 3a (fluorogenic depsipeptide substrate). The following applies: 200 pM enzyme, NS4A peptide. The format is biochemical. The source says:
Purified NS3 protease domain (amino acids 1-181) of the genotype 1b and 3a virus were generated as above. The internally quenched fluorogenic depsipeptide substrate Ac-DED(Edans)-EEAbuΨ[COO]ASK(Dabcyl)-NH2 and a synthetic peptide containing the hydrophobic core residues of the NS4A protein cofactor ([…]; NS4A peptide) were obtained from Anaspec, Inc. (San Jose, Calif.). Other chemicals and biochemicals were of reagent grade or better and were purchased from standard suppliers.
Reactions were run at room temperature in buffer consisting of 50 mM HEPES, 40% glycerol, 0.05% Triton X-100, 10 mM DTT, and 10% DMSO. The final assay solutions contained 50 pM NS3 genotype 1 b protease or 200 pM genotype 3a protease, 20 μM NS4A peptide, and 4 μM substrate (genotype 1b) or 2 μM substrate (genotype 3a). Inhibitor concentrations varied from 100 nM to 5 pM in 3-fold dilutions, and no-inhibitor controls were included.
Compound dilutions were made in DMSO at 20× final concentration. Reaction mixtures were prepared in 96-well assay plates. A solution of enzyme and NS4A peptide in assay buffer (25 μL volume with both reagents at 4× final concentration) was mixed with 45 μL assay buffer and 5 μL of either inhibitor or DMSO, and pre-incubated at room temperature for 1 hour. The reaction was started by addition of 25 μL substrate solution at 4× final concentration. Plates were mixed vigorously for 5-10 seconds and reactions were allowed to proceed for 90 minutes, fluorescence was measured every 30 s between 90 and 120 minutes reaction time using a Tecan InfiniTe M1000 or PerkinElmer Envision multimode plate reader with an excitation wavelength of 340 nm and an emission wavelength of 490 nm.
Rates were calculated from the progress curves at steady state, in the time frame of 90-120 minutes after addition of substrate. To determine the Ki, rates were plotted as a function of inhibitor concentration, and the data were fit with equation 1 (Morrison, J. F., Biochimica et Biophysica Acta 1969, 185, 269-286) to calculate Ki^app using GraphPad Prism 5. Active fraction of enzyme was determined by active site titration with known potent inhibitors. Ki was calculated from Ki^app/(1+[[S]/Km]).

Assay [5] deals with genotype 3a (S52) wild type transient HCV replicon in Huh-7-derived cells. Nature of the assay: Transient-transfected HCV replicon EC50, genotype 3a wild type. Type of assay: cell-based, hepatitis C virus. The settings on record: Hepatitis C virus; transient-transfected replicon genotype 3a wild type, 72 h; read-out: EC50 3A WT.
In assay [6] the test system is genotype 1a NS3/4a protease inhibitor resistant variant R155K transient HCV replicon in Huh-7-derived cells. Nature of the assay: Transient-transfected HCV replicon EC50, genotype 1a R155K. Type of assay: cell-based, hepatitis C virus. The following applies: Hepatitis C virus, 72 h, read-out: EC50 1A R155K, transient-transfected replicon genotype 1a R155K resistant variant, 72 h.

Assay [7] concerns genotype 1a (H77) stable HCV replicon in Huh-7-derived cells. Nature of the assay: Stable subgenomic HCV replicon EC50, genotype 1a (Renilla luciferase). Type of assay: cell-based, hepatitis C virus. The settings on record: Hepatitis C virus, stable replicon genotype 1a, 72 h, read-out: EC50 1A RLUC. Summed up:
as §1

The test system of assay [8] is genotype 3a (S52) stable HCV replicon in Huh-7-derived cells. Nature of the assay: Stable subgenomic HCV replicon EC50, genotype 3a (Renilla luciferase). The settings on record: Hepatitis C virus, 72 h, read-out: EC50 3A RLUC. Type of assay: cell-based, hepatitis C virus.
Assay [9] deals with genotype 1b NS3/4a protease inhibitor resistant variant D168A transient HCV replicon in Huh-7-derived cells. The assay can be described thus: Transient-transfected HCV replicon EC50, genotype 1b D168A. The format is cell-based, hepatitis C virus. The following applies: Hepatitis C virus, 72 h, read-out: EC50 1B D168A, transient-transfected replicon genotype 1b D168A resistant variant, 72 h.

For assay [10], the system named is genotype 1a (H77) wild type transient HCV replicon in Huh-7-derived cells. The assay can be described thus: Transient-transfected HCV replicon EC50, genotype 1a wild type. The settings on record: Hepatitis C virus, 72 h, transient-transfected replicon genotype 1a wild type, read-out: EC50 1A WT. Type of assay: cell-based, hepatitis C virus.
Assay [11] deals with genotype 1b (Con1) wild type transient HCV replicon in Huh-7-derived cells. The assay can be described thus: Transient-transfected HCV replicon EC50, genotype 1b wild type. The format is cell-based, hepatitis C virus. The settings on record: Hepatitis C virus, 72 h, transient-transfected replicon genotype 1b wild type, read-out: EC50 1B WT.

pEC50, pKi: −log10 of the molar value. Where two headings read alike, the source gives them in different places.

HCV NS3 protease domain genotype 3a, sequence (Q81258 whole entry, looked up, the tested form may be a part): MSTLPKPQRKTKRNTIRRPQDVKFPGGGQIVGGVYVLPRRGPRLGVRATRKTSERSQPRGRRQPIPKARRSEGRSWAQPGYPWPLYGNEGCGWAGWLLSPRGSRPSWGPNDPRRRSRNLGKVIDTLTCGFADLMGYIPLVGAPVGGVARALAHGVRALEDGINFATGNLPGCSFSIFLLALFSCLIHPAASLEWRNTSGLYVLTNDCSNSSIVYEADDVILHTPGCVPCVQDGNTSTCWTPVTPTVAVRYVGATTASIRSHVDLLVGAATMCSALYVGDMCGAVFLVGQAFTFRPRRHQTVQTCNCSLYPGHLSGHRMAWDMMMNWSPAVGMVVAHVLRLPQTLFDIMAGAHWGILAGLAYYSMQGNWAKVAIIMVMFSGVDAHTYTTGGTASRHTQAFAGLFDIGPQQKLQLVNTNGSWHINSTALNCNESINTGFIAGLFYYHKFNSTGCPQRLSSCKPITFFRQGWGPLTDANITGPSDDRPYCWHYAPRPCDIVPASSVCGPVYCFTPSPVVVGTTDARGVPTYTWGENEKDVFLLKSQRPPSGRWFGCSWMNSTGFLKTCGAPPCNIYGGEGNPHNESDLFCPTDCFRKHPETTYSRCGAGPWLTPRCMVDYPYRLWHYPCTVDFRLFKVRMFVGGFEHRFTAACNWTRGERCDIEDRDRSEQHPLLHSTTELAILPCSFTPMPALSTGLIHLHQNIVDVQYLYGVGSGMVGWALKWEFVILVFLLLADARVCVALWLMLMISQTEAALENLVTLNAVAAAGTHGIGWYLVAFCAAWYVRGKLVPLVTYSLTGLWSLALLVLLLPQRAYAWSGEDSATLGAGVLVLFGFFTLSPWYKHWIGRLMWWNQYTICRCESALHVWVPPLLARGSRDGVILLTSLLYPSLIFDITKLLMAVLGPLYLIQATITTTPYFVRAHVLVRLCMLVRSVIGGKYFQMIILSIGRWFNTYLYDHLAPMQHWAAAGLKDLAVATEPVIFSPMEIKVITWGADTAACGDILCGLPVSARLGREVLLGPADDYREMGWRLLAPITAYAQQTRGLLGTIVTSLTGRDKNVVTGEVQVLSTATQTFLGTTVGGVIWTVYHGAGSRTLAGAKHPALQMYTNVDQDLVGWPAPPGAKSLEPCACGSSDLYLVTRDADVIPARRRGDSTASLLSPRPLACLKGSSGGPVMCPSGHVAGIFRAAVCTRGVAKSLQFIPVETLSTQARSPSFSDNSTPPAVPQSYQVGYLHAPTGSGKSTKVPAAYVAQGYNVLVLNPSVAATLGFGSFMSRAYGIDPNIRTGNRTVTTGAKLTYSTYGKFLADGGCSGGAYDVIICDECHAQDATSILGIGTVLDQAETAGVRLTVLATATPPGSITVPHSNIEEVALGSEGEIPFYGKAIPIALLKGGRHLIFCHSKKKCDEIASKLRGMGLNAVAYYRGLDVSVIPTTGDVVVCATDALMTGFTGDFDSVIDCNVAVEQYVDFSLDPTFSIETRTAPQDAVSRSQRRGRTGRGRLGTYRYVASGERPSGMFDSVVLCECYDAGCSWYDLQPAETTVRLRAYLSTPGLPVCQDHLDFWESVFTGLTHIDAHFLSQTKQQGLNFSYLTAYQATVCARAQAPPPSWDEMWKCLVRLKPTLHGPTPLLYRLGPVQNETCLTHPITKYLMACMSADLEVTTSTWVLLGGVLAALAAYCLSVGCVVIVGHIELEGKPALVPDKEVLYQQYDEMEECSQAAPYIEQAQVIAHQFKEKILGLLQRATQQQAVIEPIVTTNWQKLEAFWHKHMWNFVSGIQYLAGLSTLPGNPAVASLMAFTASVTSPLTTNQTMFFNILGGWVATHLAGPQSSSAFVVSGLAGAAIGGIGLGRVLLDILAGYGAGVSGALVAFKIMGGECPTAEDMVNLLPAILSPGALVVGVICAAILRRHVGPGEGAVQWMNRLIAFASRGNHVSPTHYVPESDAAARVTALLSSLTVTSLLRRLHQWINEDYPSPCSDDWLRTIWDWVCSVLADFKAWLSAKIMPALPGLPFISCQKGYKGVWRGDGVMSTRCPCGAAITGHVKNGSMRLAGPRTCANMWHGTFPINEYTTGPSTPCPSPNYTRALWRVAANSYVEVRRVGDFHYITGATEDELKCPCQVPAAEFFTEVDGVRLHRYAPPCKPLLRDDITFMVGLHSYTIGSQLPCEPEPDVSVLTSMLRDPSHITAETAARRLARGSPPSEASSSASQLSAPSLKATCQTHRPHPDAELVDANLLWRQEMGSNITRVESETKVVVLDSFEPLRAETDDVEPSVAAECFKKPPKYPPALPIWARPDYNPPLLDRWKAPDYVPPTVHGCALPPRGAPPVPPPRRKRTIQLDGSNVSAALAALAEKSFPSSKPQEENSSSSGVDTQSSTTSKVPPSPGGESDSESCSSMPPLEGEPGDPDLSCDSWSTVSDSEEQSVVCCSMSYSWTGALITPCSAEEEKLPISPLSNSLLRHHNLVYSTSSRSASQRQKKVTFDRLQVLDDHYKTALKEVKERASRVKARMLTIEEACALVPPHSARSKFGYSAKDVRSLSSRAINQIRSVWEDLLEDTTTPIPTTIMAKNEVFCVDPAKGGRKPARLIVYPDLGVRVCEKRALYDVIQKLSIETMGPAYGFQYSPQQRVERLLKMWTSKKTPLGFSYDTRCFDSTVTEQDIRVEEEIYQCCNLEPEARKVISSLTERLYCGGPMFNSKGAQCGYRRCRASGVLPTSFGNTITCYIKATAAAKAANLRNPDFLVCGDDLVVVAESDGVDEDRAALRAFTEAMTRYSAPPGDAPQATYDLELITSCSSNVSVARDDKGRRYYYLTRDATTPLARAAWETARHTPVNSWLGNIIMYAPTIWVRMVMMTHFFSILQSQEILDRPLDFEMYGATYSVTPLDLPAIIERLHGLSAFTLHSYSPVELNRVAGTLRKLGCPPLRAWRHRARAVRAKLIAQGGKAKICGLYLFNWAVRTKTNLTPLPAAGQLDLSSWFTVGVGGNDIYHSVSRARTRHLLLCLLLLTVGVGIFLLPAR

`CC[C@@H]1[C@@H]2CN(C(=O)[C@H](C(C)(C)C)NC(=O)O[C@@H]3C[C@H]3CCCCCc3nc4ccc(OC)cc4nc3O2)[C@@H]1C(=O)N[C@]1(C(=O)NS(=O)(=O)C2(C)CC2)C[C@H]1C(F)F` [Example 1, (1aR,5S,8S,9S,10R,22aR)-5-tert-butyl-N-[(1R,2R)-2-(difluoromethyl)-1-{[(1-methylcyclopropyl)sulfonyl]carbamoyl}cyclopropyl]-9-ethyl-14-methoxy-3,6-dioxo-1,1a,3,4,5,6,9,10,18,19,20,21,22,22a-tetradecahydro-8H-7,10-methanocyclopropa[18,19][1,10,3,6]dioxadiazacyclononadecino[11,12-b]quinoxaline-8-carboxamide]: the pEC50 was 8.39 in [1]; 8.41 in [2]; 8.51 in [3]; 7.77 in assay [5]; 8.31 in [6]; 8.36 in [7]. For the same molecule, the pEC50 is 7.34 in assay [8], 7.77 in [9], 8.49 in assay [10] and 8.66 in assay [11]. In addition, in assay [4], the pKi is 10.15.

For `CC[C@@H]1[C@@H]2CN(C(=O)[C@H](C(C)(C)C)NC(=O)O[C@]3(C)C[C@H]3CCCCCc3nc4ccc(OC)cc4nc3O2)[C@@H]1C(=O)N[C@]1(C(=O)NS(=O)(=O)C2(C)CC2)C[C@H]1C(F)F` [Example 7, (1aR,5S,8S,9S,10R,22aR)-5-tert-butyl-N-[(1R,2R)-2-(difluoromethyl)-1-{[(1-methylcyclopropyl)sulfonyl]carbamoyl}cyclopropyl]-9-ethyl-14-methoxy-1a-methyl-3,6-dioxo-1,1a,3,4,5,6,9,10,18,19,20,21,22,22a-tetradecahydro-8H-7,10-methanocyclopropa[18,19][1,10,3,6] dioxadiazacyclononadecino[11,12-b]quinoxaline-8-carboxamide], the pEC50 in assay [1] is 8.38; in [2] it was 8.42; in assay [3], 8.49; in assay [5], 7.85; in assay [6] it was 8.17; in [7], 8.31. In addition, the pEC50 in assay [8] was 7.17; in [9], 7.70; in assay [10] it was 8.42; in assay [11], 8.64. The pKi in assay [4] is 10.22.

In the case of `CC[C@@H]1[C@@H]2CN(C(=O)[C@H](C(C)(C)C)NC(=O)O[C@@H]3C[C@H]3CCCCC(F)(F)c3nc4ccc(OC)cc4nc3O2)[C@@H]1C(=O)N[C@]1(C(=O)NS(=O)(=O)C2(C)CC2)C[C@H]1C(F)F` [Example 17, (1aR,5S,8S,9S,10R,22aR)-5-tert-butyl-N-[(1R,2R)-2-(difluoromethyl)-1-{[(1-methylcyclopropyl)sulfonyl]carbamoyl}cyclopropyl]-9-ethyl-18,18-difluoro-14-methoxy-3,6-dioxo-1,1a,3,4,5,6,9,10,18,19,20,21,22,22a-tetradecahydro-8H-7,10-methanocyclopropa[18,19][1,10,3,6]dioxadiazacyclononadecino[11,12-b]quinoxaline-8-carboxamide], the pEC50 in assay [1] was 8.43; in assay [2] it was 8.48; in assay [3], 8.54; in assay [5], 8.21; in [6] it was 8.55; in assay [7], 8.41. Further, the pEC50 in assay [8] is 7.82; in assay [9] it was 8.37; in assay [10], 8.54; in assay [11], 8.77. In assay [4], this molecule gave a pKi of 10.22.

Regarding `COc1ccc2nc3c(nc2c1)O[C@H]1CN(C(=O)[C@H](C(C)(C)C)NC(=O)O[C@@H]2C[C@H]2CCCCC3)[C@H](C(=O)N[C@]2(C(=O)NS(=O)(=O)C3(C)CC3)C[C@H]2C(F)F)[C@@H]1Cc1ccccc1` [Example 32], the pEC50 in assay [1] is 7.46; in [2], 7.52; in assay [3], 7.52; in [6] (GETYPE1A), 6.26; in assay [7], 7.23; in assay [8], 5.64. Also, the pEC50 in [9] (GETYPE1B) is 6.19; in assay [10] (GETYPE1A), 7.36; in assay [11] (GETYPE1B) it was 7.85. Further, the pKi in assay [4] is 9.06.

With `CC[C@]12C[C@@H]1CCCCCc1nc3ccc(OC)cc3nc1O[C@H]1CN(C(=O)[C@H](C(C)(C)C)NC(=O)O2)[C@H](C(=O)N[C@]2(C(=O)NS(=O)(=O)C3(C)CC3)C[C@H]2C(F)F)[C@@H]1C` [Example 42, (1aS,5S,8S,9S,10R,22aS)-5-tert-butyl-N-[(1R,2R)-2-(difluoromethyl)-1-{[(1-methylcyclopropyl)sulfonyl]carbamoyl}cyclopropyl]-1a-ethyl-14-methoxy-9-methyl-3,6-dioxo-1,1a,3,4,5,6,9,10,18,19,20,21,22,22a-tetradecahydro-8H-7,10-methanocyclopropa[18,19][1,10,3,6]dioxadiazacyclononadecino[11,12-b]quinoxaline-8-carboxamide], the pEC50 in assay [1] was 7.77; in assay [2], 7.80; in assay [3] it was 7.85; in assay [6], 7.46; in assay [7], 7.70; in [8], 6.46. Moreover, the figures for the pEC50 in assay [9], in [10] and in assay [11] were 6.96, 7.77 and 8.00, respectively. In assay [4], this molecule showed a pKi of 9.12.

Turning to `CC[C@@]12C[C@H]1CCCCCc1nc3ccc(OC)cc3nc1O[C@H]1CN(C(=O)[C@H](C(C)(C)C)NC(=O)O2)[C@H](C(=O)N[C@]2(C(=O)NS(=O)(=O)C3(C)CC3)C[C@H]2C(F)F)[C@@H]1C` [Example 43, (1aR,5S,8S,9S,10R,22aR)-5-tert-butyl-N-[(1R,2R)-2-(difluoromethyl)-1-{[(1-methylcyclopropyl)sulfonyl]carbamoyl}cyclopropyl]-1a-ethyl-14-methoxy-9-methyl-3,6-dioxo-1,1a,3,4,5,6,9,10,18,19,20,21,22,22a-tetradecahydro-8H-7,10-methanocyclopropa[18,19][1,10,3,6]dioxadiazacyclononadecino[11,12-b]quinoxaline-8-carboxamide], the pEC50 is 8.28 in [1]; 8.42 in assay [2]; 8.44 in assay [3]; 8.06 in assay [6]; 8.31 in assay [7]; 7.04 in assay [8]. Further, the pEC50 in [9] is 7.39; in assay [10] it was 8.42; in assay [11], 8.62. In [4], this molecule gave a pKi of 9.80.

The term pEC50 denotes −log10 of the EC50, conventionally taken in molar units. The term pKi denotes the negative decadic logarithm of the Ki, by convention in mol/L. High values mean a low Ki, low ones a high Ki.
